Tests used:
Assay in all cases: SelectScreen, TR FRET
TSSK1B (human) = TSSK1B (human) (UniProt Q9BXA7)
IKBKE (human) = IKBKE (human) (UniProt Q14164)
EPHA8 (human) = EPHA8 (human) (UniProt P29322)
CSF1R (human) = CSF1R (human) (UniProt P07333)
MAPK13 (human) = MAPK13 (human) (UniProt O15264)
JAK1 JH1 JH2 (human) = JAK1 JH1 JH2 (human) (UniProt P23458)
GSK3A (human) = GSK3A (human) (UniProt P49840)
[1] = target: PRKAA2 PRKAB1 PRKAG1 (human) (UniProt Q9Y478+P54646+P54619); conditions: compound 0.1 µM
IKBKB (human) = IKBKB (human) (UniProt O14920)
ITK (human) = ITK (human) (UniProt Q08881)
CSNK1A1 (human) = CSNK1A1 (human) (UniProt P48729)
Chain of CSNK1A1 (human) (P48729 whole entry, looked up): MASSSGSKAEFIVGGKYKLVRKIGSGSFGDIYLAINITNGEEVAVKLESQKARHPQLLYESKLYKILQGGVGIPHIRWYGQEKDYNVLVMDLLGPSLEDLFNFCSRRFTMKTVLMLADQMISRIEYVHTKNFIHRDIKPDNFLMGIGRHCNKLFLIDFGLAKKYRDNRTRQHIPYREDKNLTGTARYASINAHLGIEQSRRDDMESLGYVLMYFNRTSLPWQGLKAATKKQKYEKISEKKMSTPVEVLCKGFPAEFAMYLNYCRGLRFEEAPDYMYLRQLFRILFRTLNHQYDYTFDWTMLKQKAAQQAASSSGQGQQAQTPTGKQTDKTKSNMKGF

SPHK1 (human) = SPHK1 (human) (UniProt Q9NYA1)
EGFR (human) = EGFR (human) (UniProt P00533)
Chain of EGFR (human) (P00533 whole entry, looked up): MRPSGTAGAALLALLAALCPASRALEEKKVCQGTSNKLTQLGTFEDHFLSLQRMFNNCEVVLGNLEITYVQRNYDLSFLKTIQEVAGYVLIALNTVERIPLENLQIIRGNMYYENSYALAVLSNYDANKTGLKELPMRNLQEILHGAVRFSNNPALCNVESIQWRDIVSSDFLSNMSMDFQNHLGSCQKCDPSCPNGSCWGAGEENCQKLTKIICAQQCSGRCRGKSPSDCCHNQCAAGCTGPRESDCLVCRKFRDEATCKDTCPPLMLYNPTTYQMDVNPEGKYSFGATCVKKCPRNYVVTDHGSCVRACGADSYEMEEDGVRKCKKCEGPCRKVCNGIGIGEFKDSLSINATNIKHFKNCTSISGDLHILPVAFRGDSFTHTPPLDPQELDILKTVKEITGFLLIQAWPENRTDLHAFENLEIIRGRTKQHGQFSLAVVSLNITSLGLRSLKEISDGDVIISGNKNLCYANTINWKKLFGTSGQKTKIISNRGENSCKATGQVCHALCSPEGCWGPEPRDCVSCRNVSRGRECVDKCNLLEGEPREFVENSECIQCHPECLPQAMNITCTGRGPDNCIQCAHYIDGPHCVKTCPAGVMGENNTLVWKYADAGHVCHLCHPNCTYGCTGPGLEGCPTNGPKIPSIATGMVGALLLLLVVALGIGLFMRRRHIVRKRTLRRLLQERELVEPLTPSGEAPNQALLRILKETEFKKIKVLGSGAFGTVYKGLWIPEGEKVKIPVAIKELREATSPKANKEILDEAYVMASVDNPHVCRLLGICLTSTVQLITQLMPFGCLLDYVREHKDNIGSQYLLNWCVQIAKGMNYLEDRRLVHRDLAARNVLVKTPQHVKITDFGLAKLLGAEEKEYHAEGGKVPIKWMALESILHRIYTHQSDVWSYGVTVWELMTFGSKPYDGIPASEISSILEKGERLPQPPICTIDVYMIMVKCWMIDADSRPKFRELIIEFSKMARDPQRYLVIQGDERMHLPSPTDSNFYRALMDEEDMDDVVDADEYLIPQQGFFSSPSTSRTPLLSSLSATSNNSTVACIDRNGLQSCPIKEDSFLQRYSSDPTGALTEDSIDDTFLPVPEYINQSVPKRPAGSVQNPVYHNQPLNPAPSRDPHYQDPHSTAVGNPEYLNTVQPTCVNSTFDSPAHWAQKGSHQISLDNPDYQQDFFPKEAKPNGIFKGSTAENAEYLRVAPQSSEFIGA

MAPKAPK2 (human) = MAPKAPK2 (human) (UniProt P49137)
SRPK1 (human) = SRPK1 (human) (UniProt Q96SB4)
KDR (human) = KDR (human) (UniProt P35968)
AKT1 (human) = AKT1 (human) (UniProt P31749)
BTK (human) = BTK (human) (UniProt Q06187)
SYK (human) = SYK (human) (UniProt P43405)
MAPK8 (human) = MAPK8 (human) (UniProt P45983)
ABL1 (human) = ABL1 (human) (UniProt P00519)
ROCK2 (human) = ROCK2 (human) (UniProt O75116)
BMX (human) = BMX (human) (UniProt P51813)
NEK6 (human) = NEK6 (human) (UniProt Q9HC98)
GSK3B (human) = GSK3B (human) (UniProt P49841)
NEK4 (human) = NEK4 (human) (UniProt P51957)
PRKG2 (human) = PRKG2 (human) (UniProt Q13237)
CLK2 (human) = CLK2 (human) (UniProt P49760)

Chain of MAPK13 (human) (O15264 whole entry, looked up): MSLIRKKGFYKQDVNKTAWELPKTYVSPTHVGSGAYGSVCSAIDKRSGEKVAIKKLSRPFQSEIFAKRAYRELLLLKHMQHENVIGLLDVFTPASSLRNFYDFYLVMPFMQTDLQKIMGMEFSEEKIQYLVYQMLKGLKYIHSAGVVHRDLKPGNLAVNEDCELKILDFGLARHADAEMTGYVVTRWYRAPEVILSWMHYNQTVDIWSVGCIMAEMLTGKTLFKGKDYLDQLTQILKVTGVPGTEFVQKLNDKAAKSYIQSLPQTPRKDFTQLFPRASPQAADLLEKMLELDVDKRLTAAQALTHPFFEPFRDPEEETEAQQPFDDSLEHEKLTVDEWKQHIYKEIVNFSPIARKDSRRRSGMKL
Chain of CSF1R (human) (P07333 whole entry, looked up): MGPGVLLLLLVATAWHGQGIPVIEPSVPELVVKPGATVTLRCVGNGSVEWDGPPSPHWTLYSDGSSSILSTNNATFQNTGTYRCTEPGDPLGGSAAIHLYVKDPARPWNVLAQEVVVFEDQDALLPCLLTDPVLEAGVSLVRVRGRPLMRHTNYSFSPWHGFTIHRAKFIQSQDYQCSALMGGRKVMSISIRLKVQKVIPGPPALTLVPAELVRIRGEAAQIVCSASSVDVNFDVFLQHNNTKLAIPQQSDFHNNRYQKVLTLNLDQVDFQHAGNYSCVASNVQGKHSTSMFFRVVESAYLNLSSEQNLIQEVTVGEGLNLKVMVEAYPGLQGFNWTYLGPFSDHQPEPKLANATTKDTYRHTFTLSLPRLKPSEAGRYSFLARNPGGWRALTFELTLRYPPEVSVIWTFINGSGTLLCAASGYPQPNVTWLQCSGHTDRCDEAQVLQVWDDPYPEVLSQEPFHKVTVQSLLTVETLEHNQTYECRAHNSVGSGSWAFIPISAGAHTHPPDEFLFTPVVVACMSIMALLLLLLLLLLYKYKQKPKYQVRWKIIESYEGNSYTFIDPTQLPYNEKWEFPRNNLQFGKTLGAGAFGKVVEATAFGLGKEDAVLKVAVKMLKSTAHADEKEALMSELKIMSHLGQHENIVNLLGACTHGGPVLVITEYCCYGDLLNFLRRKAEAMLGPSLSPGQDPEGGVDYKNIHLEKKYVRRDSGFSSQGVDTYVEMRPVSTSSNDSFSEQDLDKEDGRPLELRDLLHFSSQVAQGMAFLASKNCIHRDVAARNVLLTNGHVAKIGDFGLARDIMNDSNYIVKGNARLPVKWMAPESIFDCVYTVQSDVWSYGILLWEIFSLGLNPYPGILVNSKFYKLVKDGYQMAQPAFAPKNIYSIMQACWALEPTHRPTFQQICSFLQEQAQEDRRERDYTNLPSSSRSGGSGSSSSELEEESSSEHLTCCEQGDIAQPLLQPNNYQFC
Chain of JAK1 JH1 JH2 (human) (P23458 whole entry, looked up): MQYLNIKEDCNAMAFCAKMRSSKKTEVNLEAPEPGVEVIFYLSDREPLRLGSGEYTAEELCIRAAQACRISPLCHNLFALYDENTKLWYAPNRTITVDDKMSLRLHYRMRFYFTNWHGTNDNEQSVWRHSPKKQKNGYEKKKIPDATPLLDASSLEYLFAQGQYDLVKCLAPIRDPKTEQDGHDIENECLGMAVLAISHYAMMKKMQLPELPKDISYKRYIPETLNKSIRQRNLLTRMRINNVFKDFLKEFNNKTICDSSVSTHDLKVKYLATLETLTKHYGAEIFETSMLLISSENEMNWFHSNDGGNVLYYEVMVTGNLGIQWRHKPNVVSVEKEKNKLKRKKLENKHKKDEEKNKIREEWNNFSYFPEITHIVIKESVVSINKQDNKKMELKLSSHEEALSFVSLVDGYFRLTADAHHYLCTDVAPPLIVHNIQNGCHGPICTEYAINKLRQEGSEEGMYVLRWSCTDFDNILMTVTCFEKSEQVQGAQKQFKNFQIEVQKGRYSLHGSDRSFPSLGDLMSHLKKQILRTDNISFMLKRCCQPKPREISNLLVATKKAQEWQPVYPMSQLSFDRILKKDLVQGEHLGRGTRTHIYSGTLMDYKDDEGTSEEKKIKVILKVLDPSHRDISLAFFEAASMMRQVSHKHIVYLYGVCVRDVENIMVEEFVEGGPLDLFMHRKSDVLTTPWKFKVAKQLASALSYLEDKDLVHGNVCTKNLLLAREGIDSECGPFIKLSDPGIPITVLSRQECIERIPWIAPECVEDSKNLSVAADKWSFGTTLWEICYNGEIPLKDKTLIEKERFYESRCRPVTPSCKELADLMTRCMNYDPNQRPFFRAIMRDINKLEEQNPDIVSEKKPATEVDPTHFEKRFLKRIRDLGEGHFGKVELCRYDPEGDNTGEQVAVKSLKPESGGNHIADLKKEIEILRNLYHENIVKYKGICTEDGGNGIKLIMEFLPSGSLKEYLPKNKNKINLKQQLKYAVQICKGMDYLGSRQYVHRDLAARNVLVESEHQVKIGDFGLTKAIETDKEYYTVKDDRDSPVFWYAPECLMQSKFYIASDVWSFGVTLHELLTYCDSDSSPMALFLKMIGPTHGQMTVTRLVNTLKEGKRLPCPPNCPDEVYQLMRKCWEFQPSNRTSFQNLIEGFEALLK
Chain of EPHA8 (human) (P29322 whole entry, looked up): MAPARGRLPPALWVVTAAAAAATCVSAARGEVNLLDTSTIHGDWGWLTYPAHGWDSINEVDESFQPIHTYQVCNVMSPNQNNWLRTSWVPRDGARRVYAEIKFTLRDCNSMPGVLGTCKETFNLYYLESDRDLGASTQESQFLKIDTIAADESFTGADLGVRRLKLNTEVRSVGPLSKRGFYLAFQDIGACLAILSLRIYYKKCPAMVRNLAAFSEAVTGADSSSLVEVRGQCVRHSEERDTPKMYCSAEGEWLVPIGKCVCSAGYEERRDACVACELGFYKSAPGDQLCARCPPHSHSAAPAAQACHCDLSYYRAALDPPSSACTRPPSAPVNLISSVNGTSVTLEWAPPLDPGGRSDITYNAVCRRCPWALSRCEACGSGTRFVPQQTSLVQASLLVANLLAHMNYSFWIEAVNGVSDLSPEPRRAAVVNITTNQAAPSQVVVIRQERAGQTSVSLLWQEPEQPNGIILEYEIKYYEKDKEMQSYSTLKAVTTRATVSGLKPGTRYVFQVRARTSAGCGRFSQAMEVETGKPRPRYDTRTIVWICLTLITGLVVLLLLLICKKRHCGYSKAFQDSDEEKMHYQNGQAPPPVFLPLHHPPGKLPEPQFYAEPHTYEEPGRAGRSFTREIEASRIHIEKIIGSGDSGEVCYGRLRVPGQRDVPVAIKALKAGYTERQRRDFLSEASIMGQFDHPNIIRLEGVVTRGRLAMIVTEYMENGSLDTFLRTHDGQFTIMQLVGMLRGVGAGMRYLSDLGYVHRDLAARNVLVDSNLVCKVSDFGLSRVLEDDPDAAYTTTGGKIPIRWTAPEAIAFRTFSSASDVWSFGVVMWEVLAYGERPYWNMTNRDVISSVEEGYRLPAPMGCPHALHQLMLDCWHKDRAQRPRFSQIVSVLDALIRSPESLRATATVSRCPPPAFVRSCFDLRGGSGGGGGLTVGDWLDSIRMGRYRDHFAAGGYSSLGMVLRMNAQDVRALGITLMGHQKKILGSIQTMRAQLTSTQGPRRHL

Structure (SMILES): Cn1cc(-c2cnc3ccc4ccc(CC(=O)NCc5ccccn5)cc4c(=O)c3c2)cn1
- inhibition (TSSK1B (human); compound 0.1 µM): 15.5%
- inhibition (TSSK1B (human); compound 1.0 µM): 11.4%
- inhibition (TSSK1B (human); compound 10.0 µM): 24.9%
- inhibition (IKBKE (human); compound 0.1 µM): 7.5%
- inhibition (IKBKE (human); compound 1.0 µM): 7%
- inhibition (IKBKE (human); compound 10.0 µM): 8.6%
- inhibition (EPHA8 (human); compound 0.1 µM): 5.4%
- inhibition (EPHA8 (human); compound 1.0 µM): 6.4%
- inhibition (EPHA8 (human); compound 10.0 µM): 24.3%
- inhibition (CSF1R (human); compound 0.1 µM): 15.7%
- inhibition (CSF1R (human); compound 1.0 µM): 25.8%
- inhibition (CSF1R (human); compound 10.0 µM): 58.3%
- inhibition (MAPK13 (human); compound 0.1 µM): 14.5%
- inhibition (MAPK13 (human); compound 1.0 µM): 15.8%
- inhibition (MAPK13 (human); compound 10.0 µM): 10%
- inhibition (JAK1 JH1 JH2 (human); compound 0.1 µM): 7.6%
- inhibition (JAK1 JH1 JH2 (human); compound 1.0 µM): 12.3%
- inhibition (JAK1 JH1 JH2 (human); compound 10.0 µM): 9.4%
- inhibition (GSK3A (human); compound 0.1 µM): 8.6%
- inhibition (GSK3A (human); compound 1.0 µM): 12.5%
- inhibition (GSK3A (human); compound 10.0 µM): 65.6%
- inhibition [1]: 11.6%
- inhibition (IKBKB (human); compound 0.1 µM): 4.6%
- inhibition (IKBKB (human); compound 1.0 µM): 6.6%
- inhibition (IKBKB (human); compound 10.0 µM): 8.5%
- inhibition (ITK (human); compound 0.1 µM): 1.8%
- inhibition (ITK (human); compound 1.0 µM): 3.8%
- inhibition (ITK (human); compound 10.0 µM): 35.8%
- inhibition (CSNK1A1 (human); compound 0.1 µM): 5.1%
- inhibition (CSNK1A1 (human); compound 1.0 µM): 4.8%
- inhibition (CSNK1A1 (human); compound 10.0 µM): 13.3%
- inhibition (SPHK1 (human); compound 0.1 µM): -3.4%
- inhibition (SPHK1 (human); compound 1.0 µM): -4.1%
- inhibition (SPHK1 (human); compound 10.0 µM): -2.1%
- inhibition (EGFR (human); compound 0.1 µM): 0.5%
- inhibition (EGFR (human); compound 1.0 µM): 0.6%
- inhibition (EGFR (human); compound 10.0 µM): 7.1%
- inhibition (MAPKAPK2 (human); compound 0.1 µM): 9.5%
- inhibition (MAPKAPK2 (human); compound 1.0 µM): 7.8%
- inhibition (MAPKAPK2 (human); compound 10.0 µM): 19.8%
- inhibition (SRPK1 (human); compound 0.1 µM): 11.1%
- inhibition (SRPK1 (human); compound 1.0 µM): 11.5%
- inhibition (SRPK1 (human); compound 10.0 µM): 12.5%
- inhibition (KDR (human); compound 0.1 µM): 20%
- inhibition (KDR (human); compound 1.0 µM): 54.7%
- inhibition (KDR (human); compound 10.0 µM): 93.9%
- inhibition (AKT1 (human); compound 0.1 µM): 17.2%
- inhibition (AKT1 (human); compound 1.0 µM): 5.5%
- inhibition (AKT1 (human); compound 10.0 µM): 9.1%
- inhibition (BTK (human); compound 0.1 µM): 10.9%
- inhibition (BTK (human); compound 1.0 µM): 13.4%
- inhibition (BTK (human); compound 10.0 µM): 15.4%
- inhibition (SYK (human); compound 0.1 µM): 19.9%
- inhibition (SYK (human); compound 1.0 µM): 13.2%
- inhibition (SYK (human); compound 10.0 µM): 61.6%
- inhibition (MAPK8 (human); compound 0.1 µM): 2.8%
- inhibition (MAPK8 (human); compound 1.0 µM): 0.1%
- inhibition (MAPK8 (human); compound 10.0 µM): 6.2%
- inhibition (ABL1 (human); compound 0.1 µM): 19.9%
- inhibition (ABL1 (human); compound 1.0 µM): 14.1%
- inhibition (ABL1 (human); compound 10.0 µM): 81.7%
- inhibition (ROCK2 (human); compound 0.1 µM): -1.9%
- inhibition (ROCK2 (human); compound 1.0 µM): -0.2%
- inhibition (ROCK2 (human); compound 10.0 µM): -5.8%
- inhibition (BMX (human); compound 0.1 µM): 7.2%
- inhibition (BMX (human); compound 1.0 µM): 7.7%
- inhibition (BMX (human); compound 10.0 µM): -77.3%
- inhibition (NEK6 (human); compound 0.1 µM): 5.2%
- inhibition (NEK6 (human); compound 1.0 µM): -7.4%
- inhibition (NEK6 (human); compound 10.0 µM): 9.6%
- inhibition (GSK3B (human); compound 0.1 µM): 7.3%
- inhibition (GSK3B (human); compound 1.0 µM): 8.1%
- inhibition (GSK3B (human); compound 10.0 µM): 64%
- inhibition (NEK4 (human); compound 0.1 µM): 10.8%
- inhibition (NEK4 (human); compound 1.0 µM): 13.5%
- inhibition (NEK4 (human); compound 10.0 µM): 37.8%
- inhibition (PRKG2 (human); compound 0.1 µM): 12.8%
- inhibition (PRKG2 (human); compound 1.0 µM): 14.8%
- inhibition (PRKG2 (human); compound 10.0 µM): 53.5%
- inhibition (CLK2 (human); compound 0.1 µM): 9.2%
- inhibition (CLK2 (human); compound 1.0 µM): 22.8%
- inhibition (CLK2 (human); compound 10.0 µM): 69.8%

From the kinase profiling compilation of Christmann-Franck et al. (2016)
